According to patent publication US20180186742A1, “PICOLINAMIDES AS FUNGICIDES” (Dow AgroSciences LLC, priority 2017, published 2018):
Where two headings read alike, the source gives them in different places.

Experiments:
Assay type in all cases: in vivo
[1] = system: Zymoseptoria tritici; assay: Leaf blotch of wheat (SEPTTR), disease control on wheat seedlings; conditions: low volume application at 121.5 g/H
Outline: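 Yuma wheat seedlings with the first leaf fully emerged were sprayed to run-off with compound in acetone plus nine volumes of water containing 110 ppm Triton X-100; track-spray tests used EC formulations with 0.1% Trycol 5941. Z. tritici inoculation came before or after treatment, followed by 100% RH dew periods and a 20 °C greenhouse. Percent control was calculated from severity versus untreated plants.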

[2] = system: Puccinia triticina; assay: Wheat brown rust (PUCCRT), disease control on wheat seedlings; conditions: low volume application at 121.5 g/H
Outline: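 Compounds in acetone, diluted with nine volumes of water containing 110 ppm Triton X-100, sprayed to run-off on first-leaf Yuma wheat seedlings; track-spray tests used EC formulations with 0.1% Trycol 5941. Puccinia triticina spores applied before or after treatment. Overnight dark dew room at 22° C, 100% humidity, then greenhouse at 24° C.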

[3] = system: Phakopsora pachyrhizi; assay: Asian soybean rust (PHAKPA), disease control on soybean seedlings; conditions: High volume application at 25 ppm
Outline: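 Two-week-old Williams 82 soybean seedlings were sprayed to run-off with compound in acetone/water (1:9) containing 0.011% Tween 20. Inoculation was 3 days before (curative) or 1 day after (protectant) treatment, followed by 24 h dark dew at 22 °C, 100% RH, then 23 °C; disease severity scored on sprayed leaves.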

[4] = 24 h, 1 Day Protectant, read-out: SEPTTR disease control, 1DP, LV activity
[5] = 72 h, 3 Day Curative, read-out: SEPTTR disease control, 3DC, LV activity
[6] = 24 h, 1 Day Protectant, read-out: PUCCRT disease control, 1DP, LV activity
[7] = 72 h, 3 Day Curative, read-out: PUCCRT disease control, 3DC, LV activity
[8] = 24 h, 1 Day Protectant, read-out: PHAKPA 1DP disease control rating
[9] = 72 h, 3 Day Curative, read-out: PHAKPA 3DC disease control rating
[10] = 24 h, 1 Day Protectant, wheat leaf blotch, read-out: SEPTTR 1DP disease control, LV activity
[11] = 72 h, 3 Day Curative, wheat leaf blotch, read-out: SEPTTR 3DC disease control, LV activity
[12] = 24 h, 1 Day Protectant, wheat brown rust, read-out: PUCCRT 1DP disease control, LV activity
[13] = 72 h, 3 Day Curative, wheat brown rust, read-out: PUCCRT 3DC disease control, LV activity

SMILES	pest or weed control at 121.5 g/ha [1, 4] [%]	pest or weed control at 121.5 g/ha [1, 5] [%]	pest or weed control at 121.5 g/ha [2, 6] [%]	pest or weed control at 121.5 g/ha [2, 7] [%]	pest or weed control at 25 ppm [3, 8] [%]	pest or weed control at 25 ppm [3, 9] [%]	pest or weed control at 121.5 g/ha [1, 10] [%]	pest or weed control at 121.5 g/ha [1, 11] [%]	pest or weed control at 121.5 g/ha [2, 12] [%]	pest or weed control at 121.5 g/ha [2, 13] [%]
COc1cc(F)ccc1[C@H](C1CCC1)[C@H](C)OC(=O)[C@H](C)NC(=O)c1nccc(OC)c1OCOC(C)=O [Compound 236]	< 80	< 80	< 80	< 80	> 80	< 80				
COc1cc(F)ccc1[C@H](C(C)C)[C@H](C)OC(=O)[C@H](C)NC(=O)c1nccc(OC)c1OCOC(C)=O [Compound 237]	< 80	< 80	> 80	> 80	> 80	> 80				
COCCC(=O)Oc1c(OC)ccnc1C(=O)N[C@@H](C)C(=O)O[C@@H](C)[C@H](c1ccc(F)cc1OC)C1CCC1 [Compound 238]	< 80	< 80	< 80	< 80	< 80	< 80				
COCCC(=O)Oc1c(OC)ccnc1C(=O)N[C@@H](C)C(=O)O[C@@H](C)[C@H](c1ccc(F)cc1OC)C(C)C [Compound 239]	> 80	< 80	> 80	> 80	> 80	> 80				
COc1ccnc(C(=O)N[C@@H](C)C(=O)O[C@@H](C)[C@@H](c2ccc(C)cc2C)C2CCC2)c1OCOC(C)=O [Compound 240]	< 80	> 80	> 80	> 80	> 80	< 80				
COc1ccnc(C(=O)N[C@@H](C)C(=O)O[C@@H](C)[C@@H](c2ccc(C)cc2C)C2CCC2)c1OC(C)=O [Compound 241]	< 0	> 80	< 80	< 80	< 80	< 80				
COc1ccnc(C(=O)N[C@@H](C)C(=O)O[C@@H](C)[C@H](c2ccc(Cl)cc2)C(C)C)c1OC(C)=O [Compound 242]	> 80	> 80	> 80	> 80	> 80	< 80				
COc1ccnc(C(=O)N[C@@H](C)C(=O)O[C@@H](C)[C@H](c2ccc(C)c(F)c2)C(C)C)c1OC(C)=O [Compound 243]	< 0	< 80	> 80	< 80	> 80	< 80				
COc1ccnc(C(=O)N[C@@H](C)C(=O)O[C@@H](C)[C@H](c2ccc(F)c(F)c2)C(C)C)c1OC(C)=O [Compound 244]	> 80	< 80	> 80	> 80	> 80	< 80				
COc1ccnc(C(=O)NCC(=O)O[C@@H](C)[C@H](c2ccc(F)cc2C)C(C)C)c1OC(C)=O [Compound 346]	< 80	< 80	> 80	> 80	> 80	< 80				
COc1ccnc(C(=O)N[C@H](C(=O)O[C@@H](C)[C@H](c2ccc(F)cc2C)C(C)C)C(C)C)c1OC(C)=O [Compound 347]	> 80	> 80	> 80	< 80	> 80	> 80				
CC[C@H](C)[C@H](NC(=O)c1nccc(OC)c1OC(C)=O)C(=O)O[C@@H](C)[C@H](c1ccc(F)cc1C)C(C)C [Compound 348]	< 80	< 80	> 80	< 80	> 80	< 80				
COc1ccnc(C(=O)N[C@@H](CC(C)C)C(=O)O[C@@H](C)[C@H](c2ccc(F)cc2C)C(C)C)c1OC(C)=O [Compound 349]	< 80	< 80	> 80	< 80	> 80	< 80				
COCCC(=O)Oc1c(OC)ccnc1C(=O)NCC(=O)O[C@@H](C)[C@H](c1ccc(F)cc1C)C(C)C [Compound 350]	< 80	< 80	> 80	> 80	> 80	> 80				
COCCC(=O)Oc1c(OC)ccnc1C(=O)N[C@H](C(=O)O[C@@H](C)[C@H](c1ccc(F)cc1C)C(C)C)C(C)C [Compound 351]	> 80	< 80	> 80	< 80	> 80	< 80				
CC[C@H](C)[C@H](NC(=O)c1nccc(OC)c1OC(=O)CCOC)C(=O)O[C@@H](C)[C@H](c1ccc(F)cc1C)C(C)C [Compound 352]	< 80	< 80	> 80	< 80	> 80	< 80				
COCCC(=O)Oc1c(OC)ccnc1C(=O)N[C@@H](CC(C)C)C(=O)O[C@@H](C)[C@H](c1ccc(F)cc1C)C(C)C [Compound 353]	< 80	< 80	< 80	< 80	> 80	< 80				
COc1ccnc(C(=O)N[C@@H](C)C(=O)O[C@@H](C)[C@H](c2cc(C)ccc2C)C(C)C)c1OC(C)=O [Compound 358]	< 80	< 80	> 80	< 80	> 80	< 80				
COc1ccnc(C(=O)N[C@@H](C)C(=O)O[C@@H](C)[C@H](c2ccccc2F)C(C)C)c1OC(C)=O [Compound 360]	< 80	> 80	> 80	> 80	> 80	> 80				
COc1ccnc(C(=O)N[C@@H](C)C(=O)O[C@@H](C)[C@H](c2cc(F)ccc2C)C(C)C)c1OC(C)=O [Compound 361]	< 80	< 80	> 80	< 80	> 80	> 80				
COc1ccnc(C(=O)N[C@@H](C)C(=O)O[C@@H](C)[C@H](c2ccc(C)cc2C)C(C)C)c1OC(C)=O [Compound 362]	> 80	> 80	> 80	> 80	> 80	> 80				
COc1ccnc(C(=O)N[C@@H](C)C(=O)O[C@@H](C)[C@H](c2ccc(F)cc2F)C(C)C)c1OC(C)=O [Compound 365]					> 80	> 80	> 80	> 80	> 80	> 80
COc1ccnc(C(=O)N[C@@H](C)C(=O)O[C@@H](C)[C@H](c2ccc(C)cc2F)C(C)C)c1OC(C)=O [Compound 366]					> 80	< 80	< 80	< 80	> 80	> 80
COc1ccnc(C(=O)N[C@@H](C)C(=O)O[C@@H](C)[C@H](c2ccc(Cl)cc2Cl)C(C)C)c1OC(C)=O [Compound 367]					> 80	> 80	> 80	< 80	> 80	> 80
